Reference: patent US8470765B2, “Polypeptides and antibacterial or antiseptic use of same” (AnGes MG, Inc., priority 2009, dated 2013)
Like-named read-outs stand apart in the source and are kept apart here. No end group written: not given here.

Tests used:
[1] = system: Candida krusei NBRC1395; settings: NBRC1395
[2] = system: Acinetobacter baumanni JCM6841; settings: JCM6841
[3] = system: Streptococcus pyogenes JCM5674
[4] = system: Bacteroides fragilis JCM 11019; settings: Table 4; two tests, first/second value where not identical
[5] = system: Fusobacterium nucleatum JCM 11025; settings: JCM 11025
[6] = system: Salmonella enteritidis IID 604; settings: IID 604
[7] = system: Bacillus subtilis NBRC3134; settings: NBRC3134
[8] = system: Trichophyton mentagrophytes NBRC6124; settings: NBRC6124
[9] = system: Escherichia coli ATCC 25922; test: ATP Assay (viability at 3 hours), Table 6; assay type: cell-based; settings: 3 h, 5 μg/mL
Protocol: (§1) Bacteria (Escherichia coli ATCC 25922, Pseudomonas aeruginosa ATCC 27853, Staphylococcus aureus ATCC29213, and Staphylococcus epidermidis JCM 2414) were inoculated to Mueller-Hinton broth: MHB or LB medium, and cultured at a temperature and period suited for each strain. From the thus obtained colonies, each strain was inoculated to a fresh liquid medium and cultured for 16 to 20 hours. Then an aliquot having a volume (10 to 50 μL) appropriate to each strain was inoculated to a fresh liquid medium and cultured for 4 to 6 hours, followed by the measurement of the absorbance at 600 nm. After comparing the turbidity with McFarland #0.5, the resultant was diluted with a medium. Each strain was added to about 10^5 CFU/mL (final concentration).
(§2) Each of the peptide solutions to be tested was diluted with the medium to obtain a solution of 10 μg/mL. As positive controls, tobramycin (TOB), oxacillin (OX) and meropenem (MEPM) were used. By dilution with sterilized purified water to 1.0 mg/mL, positive control-containing media having concentrations of […], respectively for TOB; 0.5, 0.12 and 0.06 μg/mL, respectively, for OX; and 1.0, 0.25, 0.12, 0.06, 0.03 and 0.008 μg/mL respectively, for MEPM, were prepared. To a 96-well microtiter plate, 0.1 mL of the inoculation solution and 0.1 mL of the peptide- or positive control-containing medium having the respective concentration were added, and cultured at 37° C. for 3 hours. The well not containing the sample was used as a negative control. After the culturing, ATP was measured using BacTiter-Glo Microbial Cell Viability Assay kit of PROMEGA, and compared with that in the negative control to obtain a relative value which was defined as a viability. The antibacterial activity was evaluated based on the viability at 3 hours later using ATP as an index.
(§3) The medium used in this test for bacteria was Mueller-Hinton broth. Independent experiments were carried out twice for each strain.

[10] = system: Staphylococcus aureus ATCC29213; test: ATP Assay (viability at 3 hours), Table 6; assay type: cell-based; settings: 3 h, 5 μg/mL
Protocol: as §1, §2, §3

[11] = system: Pseudomonas aeruginosa ATCC 27853; test: ATP Assay (viability at 3 hours), Table 6; assay type: cell-based; settings: 3 h, 5 μg/mL
Protocol: as §1, §2, §3

[12] = system: Salmonella typhimurium JCM1652; settings: JCM1652
[13] = system: Micrococcus luteus NBRC13867
[14] = system: Alternaria alternata JCM5800; settings: JCM5800
[15] = system: Escherichia coli ATCC 25922; test: microbe, parasite or virus in culture; assay type: cell-based
Protocol: (§4) Bacteria (Escherichia coli ATCC 25922, Pseudomonas aeruginosa ATCC 27853, Staphylococcus aureus ATCC29213, Klebsiella pneumoniae JCM 1662, Enterobacter cloacae JCM 1232, Enterobacter aerogenes JCM 1235 and Staphylococcus epidermidis JCM 2414) were inoculated to Mueller-Hinton broth: MHB or LB medium, and cultured at a temperature and period suited for each strain. From the thus obtained colonies, each strain was inoculated to a fresh liquid medium and cultured for 16 to 20 hours. Then an aliquot having a volume (10 to 50 appropriate to each strain was inoculated to a fresh liquid medium and cultured for 4 to 6 hours, followed by the measurement of the absorbance at 600 nm. After comparing the turbidity with McFarland #0.5, the resultant was diluted with a medium. Each strain was added to about 10^5 CFU/mL (final concentration). Each of the peptide solutions to be tested was diluted with MHB to obtain a solution of 128 μg/mL. […] As controls, tobramycin (TOB: aminoglucoside antibiotic), oxacillin (OX:β-lactam antibiotic), meropenem (MEPM: carbapenem antibiotic) and ciprofloxacin (new quinolone antibiotic) were used. […] To a 96-well microtiter plate, 0.1 mL of the inoculation solution and 0.1 mL of the peptide- or positive control-containing medium having the respective concentration were added, and cultured at 37° C. for 16 to 24 hours (or a time period suited for the growth of the respective strain). The well not containing the sample was used as a negative control. After the culturing, the growth was visually observed, and the minimum concentration at which the growth was inhibited was defined as the minimum growth inhibition concentration (MIC). The medium used in this test for bacteria was Mueller-Hinton broth. Independent experiments were carried out twice or more for each strain.

[16] = system: Staphylococcus aureus ATCC29213; test: microbe, parasite or virus in culture; assay type: cell-based
Protocol: as §4

[17] = system: Pseudomonas aeruginosa ATCC 27853; test: microbe, parasite or virus in culture; assay type: cell-based
Protocol: as §4

[18] = system: Staphylococcus epidermidis JCM 2414; test: microbe, parasite or virus in culture; assay type: cell-based
Protocol: as §4

[19] = system: Actinobacillus actinomycetemcomitans JCM2434
[20] = system: Trichophyton rubrum NBRC9185; settings: NBRC9185
[21] = system: Fusarium solani JCM11383; settings: JCM11383
[22] = system: Rhizopus oryzae NBRC 31005; settings: NBRC 31005
[23] = system: Pseudomonas aeruginosa 8 (clinical strain); settings: Table 4; clinical strain; first/second value where not identical
Protocol: as §1, with “ATCC29213, Klebsiella pneumoniae JCM 1662, Enterobacter cloacae JCM 1232, Enterobacter aerogenes JCM 1235” for “ATCC29213,”, “50” for “50 μL)”
(§5) Further, the antibacterial activities against the clinical strains collected and isolated from infected patients were also examined. The tests were carried out for two methicillin-resistant Staphylococcus (MRSA) (MRSA (i) and (ii)), two methicillin-sensitive Staphylococcus (MSSA) (MSSA (i) and (ii)), five Pseudomonas aeruginosa, Pseudomonas aeruginosa 1, Pseudomonas aeruginosa 6, Pseudomonas aeruginosa 8. Pseudomonas aeruginosa 9 and Pseudomonas aeruginosa 12, totally 9 clinical strains. The MRSA and MSSA clinical strains were tested by the same method as Staphylococcus aureus ATCC29213, and Pseudomonas clinical strains were tested by the same method as Pseudomonas aeruginosa ATCC 27853.
(§6) Each of the peptide solutions to be tested was diluted with MHB to obtain a solution of 128 μg/mL. This solution was serially diluted with the medium to prepare peptide-containing media having concentrations of 128, 64, 32, 16, 8.0, 4.0 and 2.0 μg/mL respectively. […] By dilution with sterilized purified water to 1.0 mg/mL, positive control-containing media having concentrations of 16, 8, 4, 2, 1.0, 0.25, 0.12 and 0.06 μg/mL, respectively for TOB; 0.5, 0.12 and 0.06 μg/mL, respectively, for OX; and 16, 8, 4, 2, 1.0, 0.25, 0.12, 0.06, 0.06, 0.03 and 0.008 μg/mL, respectively, for MEPM, were prepared.
(§7) To a 96-well microtiter plate, 0.1 mL of the inoculation solution and 0.1 mL of the peptide- or positive control-containing medium having the respective concentration were added, and cultured at 37° C. for 16 to 24 hours (or a time period suited for the growth of the respective strain). The well not containing the sample was used as a negative control. After the culturing, the growth was visually observed, and the minimum concentration at which the growth was inhibited was defined as the minimum growth inhibition concentration (MIC).
(§8) The medium used in this test for bacteria was Mueller-Hinton broth. Independent experiments were carried out twice or more for each strain.

[24] = system: Aspergillus niger NBRC 9455; settings: Table 4; two tests, first/second value where not identical
[25] = system: Enterobacter cloacae JCM 1232; assay type: cell-based; settings: Table 4; two tests, first/second value where not identical
Protocol: as §4

[26] = system: Cryptococcus neoformans IFM 46660
[27] = system: Enterobacter aerogenes JCM 1235; test: microbe, parasite or virus in culture; assay type: cell-based; settings: Table 4; two tests, first/second value where not identical
Protocol: as §4

[28] = system: Klebsiella pneumoniae JCM 1662; test: microbe, parasite or virus in culture; assay type: cell-based
Protocol: as §4

[29] = system: Pseudomonas aeruginosa 1 (clinical strain); test: microbe, parasite or virus in culture; settings: Table 4; clinical strain; first/second value where not identical
Protocol: as §1, with “ATCC29213, Klebsiella pneumoniae JCM 1662, Enterobacter cloacae JCM 1232, Enterobacter aerogenes JCM 1235” for “ATCC29213,”, “50” for “50 μL)”
as §5, §6, §7, §8

[30] = system: Pseudomonas aeruginosa 9 (clinical strain); test: microbe, parasite or virus in culture; settings: Table 4; clinical strain; first/second value where not identical
Protocol: as §1, with “ATCC29213, Klebsiella pneumoniae JCM 1662, Enterobacter cloacae JCM 1232, Enterobacter aerogenes JCM 1235” for “ATCC29213,”, “50” for “50 μL)”
as §5, §6, §7, §8

[31] = system: Pseudomonas aeruginosa 12 (clinical strain); test: microbe, parasite or virus in culture
Protocol: as §1, with “ATCC29213, Klebsiella pneumoniae JCM 1662, Enterobacter cloacae JCM 1232, Enterobacter aerogenes JCM 1235” for “ATCC29213,”, “50” for “50 μL)”
as §5, §6, §7, §8

[32] = system: Pseudomonas aeruginosa 6 (clinical strain); test: microbe, parasite or virus in culture; settings: Table 4; clinical strain; first/second value where not identical
Protocol: as §1, with “ATCC29213, Klebsiella pneumoniae JCM 1662, Enterobacter cloacae JCM 1232, Enterobacter aerogenes JCM 1235” for “ATCC29213,”, “50” for “50 μL)”
as §5, §6, §7, §8

[33] = Table 4, two tests, first/second value where not identical
[34] = Table 4, clinical strain, first/second value where not identical

Substance	Escherichia coli ATP (viability, relative value to negative control) [9]	Staphylococcus aureus ATP (viability, relative value to negative control) [10]	Pseudomonas aeruginosa ATP (viability, relative value to negative control) [11]	MIC Escherichia coli [15, 33]	MIC Staphylococcus aureus ([16]; ATCC29213)	MIC Pseudomonas aeruginosa ([17]; ATCC 27853)	MIC Staphylococcus epidermidis ([18]; JCM 2414)	MIC Rhizopus oryzae [22]	MIC Pseudomonas aeruginosa 8 [23]	MIC Aspergillus niger [24]	MIC Enterobacter cloacae [25]	MIC Cryptococcus neoformans ([26]; IFM 46660)	MIC Enterobacter aerogenes [27]	MIC Klebsiella pneumoniae [28, 33]	MIC Pseudomonas aeruginosa 1 [29]	MIC Pseudomonas aeruginosa 9 [30]	MIC Pseudomonas aeruginosa 6 [32]	MIC Pseudomonas aeruginosa 12 [31, 34]	further results
Ac-GRLKRMGERLKRKIQKWIRW-NH2 [SRP-19]	2.9	2.1	1.6	8/16	8 µg/mL	8 µg/mL	8 µg/mL	–	–	–	–	–	–	–	–	–	–	–	MIC Candida krusei [1]: 16 µg/mL; MIC Acinetobacter baumanni [2]: 32 µg/mL; MIC Streptococcus pyogenes [3]: 16 µg/mL; MIC Bacteroides fragilis [4]: 16/8; MIC Fusobacterium nucleatum [5]: 4 µg/mL; MIC Salmonella Enteritidis [6]: 4 µg/mL; MIC Bacillus subtilis [7]: 2 µg/mL; MIC Trichophyton mentagrophytes [8]: 32 µg/mL; MIC Salmonella Typhimurium [12]: 4 µg/mL; MIC Micrococcus luteus [13]: 2 µg/mL; MIC Alternaria alternata [14]: 64 µg/mL; MIC Actinobacillus actinomycetemcomitans [19]: 64 µg/mL; MIC Trichophyton rubrum [20]: 64 µg/mL; MIC Fusarium solani [21]: 16 µg/mL
LKLIFLHRLKRMRKRLKRKL-NH2 [SRP-11]	3.8	0.3	0.8	32/64	16 µg/mL	16 µg/mL	8 µg/mL	8 µg/mL	16/32	8/32	128< mg/mL	2 µg/mL	32/64	64/128	16/32	16/32	16/32	–	MIC Pseudomonas aeruginosa 12 ([31]; 12 (clinical strain)): 16 µg/mL
MLKLIFLHRLKRMRKRLKRK-NH2 [SRP-10]	2.4	0.2	0.9	32/64	16 µg/mL	–	8 µg/mL	8 µg/mL	64/128	8/16	64/128	2 µg/mL	16/128	64/128	16/64	64/128	32/128	16/32	MIC Pseudomonas aeruginosa [17, 33]: 16/32
MLKLIFLHRLKRMRKRLKRKLR-NH2 [SRP-9]	2.6	0.2	0.8	–	–	16 µg/mL	–	8 µg/mL	8/32	16/32	16/64	–	16/64	–	16/32	32/128	16/64	16/32	MIC Cryptococcus neoformans [26, 33]: 1/2; MIC Escherichia coli ([15]; ATCC 25922): 32 µg/mL; MIC Staphylococcus aureus [16, 33]: 16/32; MIC Staphylococcus epidermidis [18, 33]: 8/32; MIC Klebsiella pneumoniae ([28]; JCM 1662): 64 µg/mL
